Experimental data published in PubChem BioAssay AID1963828 (Molecular Pharmacology Branch, DTP, NCI, 2024).

Test system: 991263-137-R1-J2-PDC complex spheroid viability
Experiment: Anticancer human tumor 991263-137-R1-J2-PDC patient-derived colon adenocarcinoma cell line growth inhibition [POLQ]
Conditions: for IC50: curve of first compound; for viability, T/C: stronger effect = lower value
Description: Multicellular complex tumor spheroid response to Polymerase (POL) inhibitors (novobiocin, ART-558, RP6685) in combination with a variety of drugs and investigational agents in selected tumor cell lines
The POL inhibitors (novobiocin, ART-558, and RP6685) were evaluated both individually and in combination with standard of care and investigational anticancer small molecules within a complex spheroid model of solid tumors. . Complex spheroids include a stromal component modeled by human endothelial cells (HUVEC) and fibroblasts modeled by human mesenchymal stem cells (MSCs). The concentration ranges selected for each drug and investigational agent were based upon clinically achievable concentrations if the clinical Cmax of the agent was known.
Compounds. The drugs and investigational agents: novobiocin (NSC847541), ART-558 (NSC835418), RP-6685 (NSC848927), peposertib (NSC802822), ceralasertib (NSC780249), elimusertib (NSC800525), camonsertib (NSC841442), AZD-1390 (NSC803789), olaparib (NSC753686), talazoparib (NSC767125), rucaparib (NSC756644), sotorasib (NSC818433), MRTX-1133 (NSC836407), SN-38 (NSC673596), topotecan (NSC609699), epotoside (NSC141540), doxorubicin (NSC123127), gemcitabine (NSC613327), 5-fluorouracil (NSC19893), paclitaxel (NSC125973), vemurafenib (NSC761431), MSA-2 (NSC828583), SN-011 (NSC837082), adavosertib (NSC754352), prexasertib (NSC758257), carboplatin (NSC241240) and oxaliplatin (NSC266046), were obtained from the National Cancer Institute (NCI) Developmental Therapeutics Program Chemical Repository (21). The FDA-approved anticancer drug set is available from the Developmental Therapeutics Program at https://dtp.cancer.gov/organization/dscb/obtaining/. […] The stock solutions were prepared in dimethyl sulfoxide (DMSO, Sigma-Aldrich, St. Louis, MO, cat. D2650), except for the platinum compounds which were prepared in saline (Quality Biological, Gaithersburg, MD, cat. 114-055-101), at 800-fold the tested concentration and stored at -70 degrees C prior to their use. All drugs and investigational agents were tested over a range starting from a high concentration at or near the clinical Cmax and decreasing in half-log increments. If the clinical Cmax for an agent had not been determined, the highest concentration tested was 10 microM, except for SN-38, which was tested at a high concentration of 1 microM.
Cell Culture. All cells were maintained in an incubator at 37 degrees C and 5% CO2 with 95% humidity. The PDC lines were cultured according to standard operating procedures established by the NCI PDMR (https://pdmr.cancer.gov). Table 3 of the manuscript, lists the cell lines along with the number of the three cell types plated to form the mct-spheroids and media for tumor cell growth. After thawing, all PDC lines, except 997537-175-T-J1-PDC and 415267-285-R-J2-PDC, were cultured in Matrigel-coated flasks prepared with a working solution of 1X Ham's F-12 nutrient mix, without supplementation (Thermo Fisher Scientific, cat. 11765054), 100 U/mL penicillin-streptomycin (Thermo Fisher Scientific, cat. 15140122), and 2.5% Matrigel (Corning Inc., Corning, NY, cat. 354248) for the first three passages. The two PDC lines 997537-175-T-J1-PDC and 415267-285-R-J2-PDC were cultured on uncoated flasks. The 857933-349-R-J2-PDC line was cultured in 6C/Colon 1B media containing advanced DMEM/F-12 (Thermo Fisher Scientific, cat. 12634028), 10 mM HEPES (Thermo Fisher Scientific, cat. 15630080), 1X GlutaMAX supplement (Thermo Fisher Scientific, cat. 35050061), 0.1 mg/mL primocin (InvivoGen, San Diego, CA, cat. ant-pm-2), 10% defined fetal bovine serum, heat inactivated (HyClone Laboratories Inc., Logan, UT, cat. SH30070.03HI), 50% L-WRN conditioned media (ATCC, cat. CRL-3276), 1.25 mM N-Acetyl-L-cysteine (Sigma-Aldrich, cat. A9165), 10 mM nicotinamide (Sigma-Aldrich, cat. N0636), 1X B-27 supplement (Thermo Fisher Scientific, cat. 17504044), 1X N-2 supplement (Thermo Fisher Scientific, cat. […]
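Note: spheroids exposed to compounds for 7 days before readout.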
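Throughout, for viability, T/C: 100% = DMSO vehicle control viability.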

## COc1cccc2c1C(=O)c1c(O)c3c(c(O)c1C2=O)CC(O)(C(=O)CO)CC3OC1CC(N)C(O)C(C)O1 (configuration not stated) + Nc1ccc(C#CCN(C(=O)Cc2ncc(C(F)(F)F)cc2C(F)(F)F)c2ccc(F)cc2)nn1
Second compound 0.0316 µM
  IC50: 1270 nM
Second compound 0.1 µM
  IC50: 1480 nM
Second compound 0.316 µM
  IC50: 1250 nM
Second compound 1 µM
  IC50: 1040 nM
Second compound 3.16 µM
  IC50: 822 nM
Second compound 10 µM
  IC50: 614 nM
Second compound 0.0316 µM, first compound 0.0316 µM
  viability, T/C: 102%
Second compound 0.0316 µM, first compound 0.1 µM
  viability, T/C: 92.4%
Second compound 0.0316 µM, first compound 0.316 µM
  viability, T/C: 92.8%
Second compound 0.0316 µM, first compound 1 µM
  viability, T/C: 51.7%
Second compound 0.0316 µM, first compound 3.16 µM
  viability, T/C: 43.4%
Second compound 0.0316 µM, first compound 10 µM
  viability, T/C: 42.6%
Second compound 0.1 µM, first compound 0.0316 µM
  viability, T/C: 103%
Second compound 0.1 µM, first compound 0.1 µM
  viability, T/C: 97.8%
Second compound 0.1 µM, first compound 0.316 µM
  viability, T/C: 91.5%
Second compound 0.1 µM, first compound 1 µM
  viability, T/C: 53.2%
Second compound 0.1 µM, first compound 3.16 µM
  viability, T/C: 45.1%
Second compound 0.1 µM, first compound 10 µM
  viability, T/C: 40.2%
Second compound 0.316 µM, first compound 0.0316 µM
  viability, T/C: 94.7%
Second compound 0.316 µM, first compound 0.1 µM
  viability, T/C: 98%
Second compound 0.316 µM, first compound 0.316 µM
  viability, T/C: 91.9%
Second compound 0.316 µM, first compound 1 µM
  viability, T/C: 53%
Second compound 0.316 µM, first compound 3.16 µM
  viability, T/C: 38%
Second compound 0.316 µM, first compound 10 µM
  viability, T/C: 35.1%
Second compound 1 µM, first compound 0.0316 µM
  viability, T/C: 88.6%
Second compound 1 µM, first compound 0.1 µM
  viability, T/C: 109%
Second compound 1 µM, first compound 0.316 µM
  viability, T/C: 81.8%
Second compound 1 µM, first compound 1 µM
  viability, T/C: 52%
Second compound 1 µM, first compound 3.16 µM
  viability, T/C: 37.4%
Second compound 1 µM, first compound 10 µM
  viability, T/C: 37.4%
Second compound 3.16 µM, first compound 0.0316 µM
  viability, T/C: 90.6%
Second compound 3.16 µM, first compound 0.1 µM
  viability, T/C: 94.3%
Second compound 3.16 µM, first compound 0.316 µM
  viability, T/C: 76.9%
Second compound 3.16 µM, first compound 1 µM
  viability, T/C: 43.8%
Second compound 3.16 µM, first compound 3.16 µM
  viability, T/C: 38.4%
Second compound 3.16 µM, first compound 10 µM
  viability, T/C: 28.8%
Second compound 10 µM, first compound 0.0316 µM
  viability, T/C: 91.6%
Second compound 10 µM, first compound 0.1 µM
  viability, T/C: 88.4%
Second compound 10 µM, first compound 0.316 µM
  viability, T/C: 61.2%
Second compound 10 µM, first compound 1 µM
  viability, T/C: 39.3%
Second compound 10 µM, first compound 3.16 µM
  viability, T/C: 28.8%
Second compound 10 µM, first compound 10 µM
  viability, T/C: 16.4%
